“And” between values parts separate entries of the source, which are not always exact repeats. Identical values can stand only once.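 Compound exposure: 48 hours, 5 concentrations, 96-well plates. GI50 marks 50% less growth. TGI marks complete inhibition of growth.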
How the values were obtained:
Experiment in all cases: NCI-60 cell line screen, 48 h
IGROV1 ovarian = system: IGROV1 ovarian
NCI/ADR-RES ovarian = system: NCI/ADR-RES ovarian
MDA-MB-435 = system: MDA-MB-435
MDA-N = system: MDA-N
UACC-257 melanoma = system: UACC-257 melanoma
NCI-H226 lung = system: NCI-H226 lung
NCI-H460 lung = system: NCI-H460 lung
OVCAR-5 ovarian = system: OVCAR-5 ovarian
HOP-92 NSCLC = system: HOP-92 NSCLC
K-562 leukemia = system: K-562 leukemia
KM12 colon = system: KM12 colon
UACC-62 melanoma = system: UACC-62 melanoma
PC-3 prostate = system: PC-3 prostate
MALME-3M melanoma = system: MALME-3M melanoma
SW-620 colon = system: SW-620 colon
TK-10 renal = system: TK-10 renal
LOX IMVI melanoma = system: LOX IMVI melanoma
RPMI-8226 leukemia = system: RPMI-8226 leukemia
HT29 colon = system: HT29 colon
SK-MEL-2 melanoma = system: SK-MEL-2 melanoma
M14 melanoma = system: M14 melanoma
MCF7 breast = system: MCF7 breast
SK-OV-3 ovarian = system: SK-OV-3 ovarian
CAKI-1 renal = system: CAKI-1 renal
HCT-15 colon = system: HCT-15 colon
SNB-75 CNS = system: SNB-75 CNS
SF-295 CNS = system: SF-295 CNS
SF-268 CNS = system: SF-268 CNS
OVCAR-8 ovarian = system: OVCAR-8 ovarian
U251 CNS = system: U251 CNS
HCC-2998 colon = system: HCC-2998 colon
SNB-19 CNS = system: SNB-19 CNS
786-0 renal = system: 786-0 renal
DU-145 prostate = system: DU-145 prostate
BT-549 breast = system: BT-549 breast
NCI-H522 lung = system: NCI-H522 lung
HOP-62 NSCLC = system: HOP-62 NSCLC
RXF 393 renal = system: RXF 393 renal
SK-MEL-5 melanoma = system: SK-MEL-5 melanoma
OVCAR-3 ovarian = system: OVCAR-3 ovarian
ACHN renal = system: ACHN renal
SF-539 CNS = system: SF-539 CNS
HL-60(TB) leukemia = system: HL-60(TB) leukemia
SK-MEL-28 melanoma = system: SK-MEL-28 melanoma
HCT-116 colon = system: HCT-116 colon
T-47D breast = system: T-47D breast
EKVX NSCLC = system: EKVX NSCLC
SR leukemia = system: SR leukemia
SN12C renal = system: SN12C renal
A549 NSCLC = system: A549 NSCLC
MOLT-4 leukemia = system: MOLT-4 leukemia
HS 578T breast = system: HS 578T breast
NCI-H23 lung = system: NCI-H23 lung
COLO 205 colon = system: COLO 205 colon
A498 renal = system: A498 renal
CCRF-CEM leukemia = system: CCRF-CEM leukemia
OVCAR-4 ovarian = system: OVCAR-4 ovarian
UO-31 renal = system: UO-31 renal

Q: `Nc1nc(Cl)c(N=Nc2ccc(Cl)cc2)c(NCC2(CO)CC(OCc3ccccc3)C2)n1` (centres undefined) was tested. Which TGI (IGROV1 ovarian) did it give?
A: 70.3 µM and > 100 µM and 29.9 µM

Q: And the GI50 (NCI/ADR-RES ovarian)?
A: 6.55 µM and 9.08 µM and 3.98 µM

Q: And the TGI (NCI/ADR-RES ovarian)?
A: 77.8 µM and > 100 µM and 16.2 µM

Q: And the TGI (MDA-MB-435)?
A: 14.2 µM and > 100 µM and 59.2 µM

Q: What about the GI50 (MDA-N) of the same compound?
A: 29.5 µM and > 100 µM and 11.8 µM

Q: What about the TGI (MDA-N) of the same compound?
A: > 100 µM

Q: And the GI50 (UACC-257 melanoma)?
A: 32.5 µM and > 95.4 µM and 15.6 µM

Q: What about the TGI (UACC-257 melanoma) of the same compound?
A: > 100 µM and 46 µM

Q: What about the GI50 (NCI-H226 lung) of the same compound?
A: 6.92 µM and 18.9 µM and 6.68 µM

Q: What about the TGI (NCI-H226 lung) of the same compound?
A: 28.9 µM and > 100 µM and 24.9 µM

Q: What about the GI50 (NCI-H460 lung) of the same compound?
A: 7.43 µM and 29.4 µM and 3.85 µM

Q: What about the TGI (NCI-H460 lung) of the same compound?
A: 86.1 µM and > 100 µM and 17.7 µM

Q: And the GI50 (OVCAR-5 ovarian)?
A: 13.4 µM and > 100 µM and 12 µM

Q: What about the TGI (OVCAR-5 ovarian) of the same compound?
A: > 100 µM and 30.2 µM

Q: And the GI50 (HOP-92 NSCLC)?
A: 1.83 µM and 6.13 µM and 2.33 µM

Q: And the GI50 (K-562 leukemia)?
A: 2.76 µM

Q: And the TGI (K-562 leukemia)?
A: 10.3 µM and > 100 µM

Q: What about the GI50 (KM12 colon) of the same compound?
A: 20 µM and 41.3 µM and 7.74 µM

Q: And the TGI (KM12 colon)?
A: > 100 µM and 28 µM

Q: What about the TGI (UACC-62 melanoma) of the same compound?
A: 55.2 µM and > 100 µM and 25.1 µM

Q: What about the GI50 (PC-3 prostate) of the same compound?
A: 42.8 µM and 10.9 µM

Q: And the TGI (PC-3 prostate)?
A: 77.5 µM and > 100 µM and 26.5 µM

Q: And the GI50 (MALME-3M melanoma)?
A: 17.9 µM and 10.1 µM

Q: What about the TGI (MALME-3M melanoma) of the same compound?
A: 33.3 µM

Q: What about the TGI (SW-620 colon) of the same compound?
A: > 100 µM and 20 µM

Q: And the TGI (TK-10 renal)?
A: 46.9 µM and > 100 µM and 24.3 µM

Q: What about the GI50 (LOX IMVI melanoma) of the same compound?
A: 2.04 µM and 18.1 µM and 2.72 µM

Q: And the TGI (LOX IMVI melanoma)?
A: 20.7 µM and > 100 µM and 11.3 µM

Q: What about the GI50 (RPMI-8226 leukemia) of the same compound?
A: 7.56 µM and > 44.4 µM and 14.5 µM

Q: What about the TGI (RPMI-8226 leukemia) of the same compound?
A: > 100 µM

Q: What about the TGI (HT29 colon) of the same compound?
A: 20 µM and > 100 µM and 14 µM

Q: And the GI50 (SK-MEL-2 melanoma)?
A: 17.3 µM and > 31.3 µM and 13.6 µM

Q: And the TGI (SK-MEL-2 melanoma)?
A: 61.4 µM and > 100 µM and 28 µM

Q: What about the TGI (M14 melanoma) of the same compound?
A: > 100 µM and 18.7 µM

Q: And the GI50 (MCF7 breast)?
A: 3.9 µM and 31.3 µM and 7.84 µM

Q: What about the TGI (MCF7 breast) of the same compound?
A: 14.2 µM and > 100 µM and 22.6 µM

Q: And the TGI (SK-OV-3 ovarian)?
A: 69.9 µM and > 100 µM and 30 µM

Q: And the GI50 (CAKI-1 renal)?
A: 0.768 µM

Q: And the TGI (CAKI-1 renal)?
A: 3.68 µM and 14.2 µM and 5.52 µM

Q: And the TGI (HCT-15 colon)?
A: > 100 µM and 20.1 µM

Q: What about the GI50 (SNB-75 CNS) of the same compound?
A: 4.55 µM

Q: And the TGI (SNB-75 CNS)?
A: 26.8 µM and > 29.1 µM and 25.5 µM

Q: And the GI50 (SF-295 CNS)?
A: 22.2 µM and 45 µM and 13.4 µM

Q: What about the TGI (SF-295 CNS) of the same compound?
A: 99.5 µM and > 100 µM and 30.8 µM

Q: What about the TGI (SF-268 CNS) of the same compound?
A: 61.1 µM and > 100 µM and > 61 µM

Q: And the GI50 (OVCAR-8 ovarian)?
A: 3.69 µM and 16.1 µM and 4.39 µM

Q: What about the TGI (OVCAR-8 ovarian) of the same compound?
A: 16.3 µM and > 100 µM and 23.9 µM

Q: What about the TGI (U251 CNS) of the same compound?
A: 28.5 µM and > 100 µM and 36 µM

Q: And the TGI (HCC-2998 colon)?
A: 87.3 µM and > 100 µM and 16.9 µM

Q: What about the GI50 (SNB-19 CNS) of the same compound?
A: 26.7 µM and > 100 µM and 18.3 µM

Q: What about the TGI (SNB-19 CNS) of the same compound?
A: > 100 µM and 47.6 µM

Q: And the GI50 (786-0 renal)?
A: 5.31 µM and 11.1 µM and 2.12 µM

Q: And the GI50 (DU-145 prostate)?
A: 6.16 µM and 14.6 µM and 4.62 µM

Q: What about the TGI (DU-145 prostate) of the same compound?
A: 92.2 µM and > 100 µM and 26.5 µM

Q: What about the GI50 (BT-549 breast) of the same compound?
A: 4.98 µM and 45.7 µM and 8.82 µM

Q: What about the TGI (BT-549 breast) of the same compound?
A: 46 µM and > 100 µM and 23.9 µM

Q: And the GI50 (NCI-H522 lung)?
A: 2.09 µM

Q: And the TGI (NCI-H522 lung)?
A: 4.26 µM

Q: And the TGI (HOP-62 NSCLC)?
A: 49.4 µM and > 100 µM and 22.5 µM

Q: What about the GI50 (RXF 393 renal) of the same compound?
A: 5.17 µM and > 48.3 µM and 8.18 µM

Q: And the TGI (RXF 393 renal)?
A: 19.7 µM and > 100 µM and 25.6 µM

Q: And the TGI (SK-MEL-5 melanoma)?
A: 21 µM and > 100 µM and 38.7 µM

Q: And the GI50 (OVCAR-3 ovarian)?
A: 5.88 µM and 19.2 µM and 6.07 µM

Q: And the TGI (OVCAR-3 ovarian)?
A: 45 µM and > 100 µM and 21.5 µM

Q: And the GI50 (ACHN renal)?
A: 2.6 µM

Q: And the TGI (ACHN renal)?
A: 20.3 µM and 3.55 µM and 3.47 µM

Q: What about the GI50 (SF-539 CNS) of the same compound?
A: 13.7 µM and > 100 µM and 12.4 µM

Q: And the TGI (SF-539 CNS)?
A: 43.7 µM and > 100 µM and 33.1 µM

Q: What about the GI50 (HL-60(TB) leukemia) of the same compound?
A: 3.09 µM

Q: What about the TGI (HL-60(TB) leukemia) of the same compound?
A: 29 µM and > 100 µM

Q: What about the TGI (SK-MEL-28 melanoma) of the same compound?
A: > 100 µM and 33.4 µM

Q: And the GI50 (HCT-116 colon)?
A: 7.37 µM and 40.9 µM and 8.76 µM

Q: And the TGI (HCT-116 colon)?
A: > 100 µM and 32.4 µM

Q: What about the GI50 (T-47D breast) of the same compound?
A: 8.73 µM

Q: And the TGI (T-47D breast)?
A: 73.1 µM and > 100 µM and > 77.2 µM

Q: What about the GI50 (EKVX NSCLC) of the same compound?
A: 2.37 µM and 11 µM and 3.08 µM

Q: What about the GI50 (SR leukemia) of the same compound?
A: 2.95 µM and 6.33 µM and 3.1 µM

Q: And the TGI (SN12C renal)?
A: 16.9 µM and > 100 µM and 22 µM

Q: What about the GI50 (A549 NSCLC) of the same compound?
A: 14.7 µM and 62.7 µM and 13.8 µM

Q: And the TGI (A549 NSCLC)?
A: 51.2 µM and > 100 µM and 32.1 µM

Q: And the GI50 (MOLT-4 leukemia)?
A: 3.39 µM and 9.61 µM and 3.56 µM

Q: And the TGI (MOLT-4 leukemia)?
A: 38.6 µM and > 100 µM and > 48.4 µM

Q: And the GI50 (HS 578T breast)?
A: 7.33 µM and 29.1 µM and 8.36 µM

Q: What about the TGI (HS 578T breast) of the same compound?
A: 36.2 µM and > 100 µM and > 53.7 µM

Q: What about the GI50 (NCI-H23 lung) of the same compound?
A: 3.76 µM and 25 µM and 3.09 µM

Q: And the TGI (NCI-H23 lung)?
A: 24.9 µM and > 100 µM and 13.9 µM

Q: And the GI50 (COLO 205 colon)?
A: 27.9 µM and 33.7 µM and 6.17 µM

Q: What about the TGI (COLO 205 colon) of the same compound?
A: > 100 µM and 25.6 µM

Q: And the GI50 (A498 renal)?
A: 30.9 µM and > 100 µM and 20.2 µM

Q: What about the TGI (A498 renal) of the same compound?
A: 91.8 µM and > 100 µM and 44.1 µM

Q: And the TGI (CCRF-CEM leukemia)?
A: 51.5 µM and > 100 µM

Q: And the GI50 (OVCAR-4 ovarian)?
A: 2.25 µM and 15.9 µM and 3.65 µM

Q: What about the GI50 (UO-31 renal) of the same compound?
A: 3.27 µM

Q: What about the TGI (UO-31 renal) of the same compound?
A: 12.5 µM and 6.43 µM

Source: PubChem BioAssay (NCI)
